Laboratory results taken from patent publication US20150250166A1, “NOOTKATONE AS AN INSECTICIDE AND INSECT REPELLENT” (ALLYLIX, INC., priority 2012, published 2015).

Key:
Format in all cases: in vivo
[1] = system: adult cat fleas (Ctenocephalides felis); assay: Cat flea repellency, treated versus untreated paper towel halves in payliner; conditions: for Percent Repellency (corrected for isopropanol control) / cat fleas on 10% Nootkatone-treated paper towel, average count of five trials (of 10): 10% nootkatone, 0.1% BHT in isopropanol
Description: A formulation, containing 10% nootkatone, 0.1% butylated hydroxytoluene (BHT) in isopropanol was tested for efficacy for repelling adult cat fleas (Ctenocephalides felis). Equal amounts of 10% nootkatone solution, stored at ambient temperature and humidity, were applied to five semi-circular pieces of paper towels, arranged so that they were evenly spaced on a sheet of aluminum foil, until sufficiently wet to the touch. Five untreated semi-circular pieces were marked with the letter “c”, for control, on both sides in pencil or solvent resistant ink. Each of the semi-circular pieces of paper towel had the diameter of a 5-gallon payliner. Immediately after spraying the paper towels with the nootkatone solution, the treated towels were placed in 5 5-gallon payliners. The untreated semi-circular paper towels were also placed in the payliners, with the flat sides of the semi-circle side-by-side with those of the treated pieces, so that the bottoms of the payliners were completely covered with paper towel, half treated and half untreated. Five additional payliners with one semi-circular paper towel treated with isopropyl alcohol and the other untreated served as controls. A 9 dram vial, containing 10 cat fleas (El Labs Inc (Soquel, Calif.)) was emptied onto each of the untreated paper towels in the payliners (total of 10 payliners). The distribution of the cat fleas on the control vs. treated paper towels was recorded at 0.5, 1, 1.5, 2, and 24 hours. Observations were made quietly to minimize the disturbance to the fleas by the observer. The containers were kept at ambient temperature and humidity for the duration of the study. The repellency was calculated from the following equation: R=[(C−T)/C]*100, where R is the % repellency, C is the fraction of fleas on the isopropanol-treated paper towel pieces, and T is the fraction of fleas on the nootkatone-treated paper towel pieces.

[2] = system: adult bed bugs (Cimex lectularius); assay: Bed bug repellency, treated versus untreated filter paper halves in Petri dish chamber; conditions: for Repellency (%) Treatment Group / bed bugs on Nootkatone treatment filter paper (count, of 50) / Repellency (summary of bedbug repellency): 0.1% BHT; for Repellency (summary of bedbug repellency): Day 1
[3] = system: adult cat fleas (Ctenocephalides felis); conditions: 10% nootkatone in isopropanol, direct spray; 24 hours
Description: A direct spray formulation, containing 10% nootkatone, 0.1% butylated hydroxytoluene (BHT) in isopropanol, stored at ambient temperature and humidity, was tested for efficacy for knockdown and mortality among adult cat fleas (Ctenocephalides felis). Five replicates of 10 adult cat fleas (El Labs Inc (Soquel, Calif.)) were emptied from 9 dram vials into 5 gallon HDPE Payliner® pail liners lined with paper towels. Each replicate was sprayed manually with 1 gram±0.1 grams of the 10% nootkatone formulation from the rim of the pail liner. The spray bottle was weighed before and after treating each replicate to confirm the weight of the test sample dispensed. Five control replicates of 10 adult cat fleas were treated with isopropyl alcohol, following the same protocol. The study provided a single treatment of 10% nootkatone formulation or isopropyl alcohol. All spraying took place in a vented, stainless steel Peet Grady chamber (6×6×6 ft).
Following the knockdown studies, the payliners containing cat fleas were kept at ambient temperature and humidity in the laboratory. Mortality of cat fleas following isopropanol (control) and 10% nootkatone treatments was then recorded 24 hours after solution administration. Dead fleas were confirmed by probing the fleas or exhaling into the payliner to ensure lack of movement. […] Cat fleas that were able to jump were recorded as being alive. The number of moribund and dead fleas per replicate were added together for a total mortality count and divided by the number of fleas tested to derive percent mortality.

[4] = 0.50% nootkatone in acetone, Day 1, 0.5 hour

C=C(C)[C@@H]1CCC2=CC(=O)C[C@@H](C)[C@]2(C)C1 [nootkatone, 4,4a,5,6,7,8-hexahydro-6-isopropenyl-4,4a-dimethyl-2(3H)-naphtalenone]
cat flea repellency, in words ([1]; 10% nootkatone in isopropyl alcohol): does not repel cat fleas | Percent Repellency (corrected for isopropanol control) ([1]; 0.5 hr): −40.0% | cat fleas on 10% Nootkatone-treated paper towel, average count of five trials (of 10) ([1]; 0.5 hr): 5.6 | Percent Repellency (corrected for isopropanol control) ([1]; 1 hr): 9.5% | cat fleas on 10% Nootkatone-treated paper towel, average count of five trials (of 10) ([1]; 1 hr): 3.8 | Percent Repellency (corrected for isopropanol control) ([1]; 1.5 hr): 9.5% | cat fleas on 10% Nootkatone-treated paper towel, average count of five trials (of 10) ([1]; 1.5 hr): 3.8 | Percent Repellency (corrected for isopropanol control) ([1]; 2 hr): 20.0% | cat fleas on 10% Nootkatone-treated paper towel, average count of five trials (of 10) ([1]; 2 hr): 3.2 | Percent Repellency (corrected for isopropanol control) ([1]; 24 hr): 38.9% | cat fleas on 10% Nootkatone-treated paper towel, average count of five trials (of 10) ([1]; 24 hr): 2.2 | Repellency (%) Treatment Group ([2]; 0.01% nootkatone in acetone, Day 1, 1.0 hour): 66.0% | bed bugs on Nootkatone treatment filter paper (count, of 50) ([2]; 0.01% nootkatone in acetone, Day 1, 24.0 hour): 21 | bedbug repellency, in words ([2]; 0.01% nootkatone in acetone, day 1 and day 2, statistically significant versus the control): moderate bedbug repellency | Repellency (%) Treatment Group ([2]; 0.10% nootkatone in acetone, Day 1, 0.5 hour): 94.0% | Repellency (%) Treatment Group ([2]; 0.10% nootkatone in acetone, Day 1, 2.0 hour): 94.0% | bedbug repellency, in words ([2]; 0.1% nootkatone in acetone, day one): good bedbug repellent for one day | Repellency (%) Treatment Group [2, 4]: 100.0% | bed bugs on Nootkatone treatment filter paper (count, of 50) [2, 4]: 0 | bed bugs on Nootkatone treatment filter paper (count, of 50) ([2]; 0.50% nootkatone in acetone, Day 1, Average of time points): 0.0 | Repellency (%) Treatment Group ([2]; 0.50% nootkatone in acetone, Day 2, 1.0 hour): 88.0% | bed bugs on Nootkatone treatment filter paper (count, of 50) ([2]; 0.50% nootkatone in acetone, Day 2, Average of time points): 4.2 | bedbug repellency, in words ([2]; 0.5% nootkatone in acetone, two days): good bedbug repellent for two days | Repellency (summary of bedbug repellency) ([2]; Nootkatone 0.010% in acetone): 66.0% | Repellency (summary of bedbug repellency) ([2]; Nootkatone 0.10% in acetone): 93.6% | Alive, average cat flea count of 5 trials (of 10) [3]: 0 | Dead, average cat flea count of 5 trials (of 10) [3]: 9.6 | Moribund, average cat flea count of 5 trials (of 10) [3]: 0.4 | Mortality (moribund plus dead) of cat fleas [3]: 100%
